In assay [1] the test system is CD8+ T cells. Briefly: In vitro T-cell priming with aAPCs loaded with peptide/MHC complexes and anti-CD28 antibody, pMHC multimer readout. It is filed as cell-based, human. The following applies: for Wells positive [%] (in vitro immunogenicity): HLA-A*02 restricted peptides, positive wells among evaluable, healthy donors; for wells (in vitro immunogenicity, positive wells): HLA class I peptides, CD8+ T cells of healthy HLA-A*02 donors. The source says:
In order to obtain information regarding the immunogenicity of the TUMAPs of the present invention, the inventors performed investigations using an in vitro T-cell priming assay based on repeated stimulations of CD8+ T cells with artificial antigen presenting cells (aAPCs) loaded with peptide/MHC complexes and anti-CD28 antibody.
In order to perform in vitro stimulations by artificial antigen presenting cells loaded with peptide-MHC complex (pMHC) and anti-CD28 antibody, the inventors first isolated CD8+ T cells from fresh HLA-A*02 leukapheresis products via positive selection using CD8 microbeads (Miltenyi Biotec, Bergisch-Gladbach, Germany) of healthy donors obtained from the University clinics Mannheim, Germany, after informed consent.
PBMCs and isolated CD8+ lymphocytes were incubated in T-cell medium (TCM) until use consisting of RPMI-Glutamax (Invitrogen, Karlsruhe, Germany) supplemented with 10% heat inactivated human AB serum (PAN-Biotech, Aidenbach, Germany), 100 U/ml Penicillin/100 μg/ml Streptomycin (Cambrex, Cologne, Germany), 1 mM sodium pyruvate (CC Pro, Oberdorla, Germany), 20 μg/ml Gentamycin (Cambrex). 2.5 ng/ml IL-7 (PromoCell, Heidelberg, Germany) and 10 U/ml IL-2 (Novartis Pharma, Nürnberg, Germany) were also added to the TCM at this step.
Generation of pMHC/anti-CD28 coated beads, T-cell stimulations and readout was performed in a highly defined in vitro system using four different pMHC molecules per stimulation condition and 8 different pMHC molecules per readout condition.
The purified co-stimulatory mouse IgG2a anti human CD28 Ab 9.3 (Jung et al., 1987) was chemically biotinylated using Sulfo-N-hydroxysuccinimidobiotin as recommended by the manufacturer (Perbio, Bonn, Germany). Beads used were 5.6 μm diameter streptavidin coated polystyrene particles (Bangs Laboratories, Illinois, USA).
800.000 beads/200 μl were coated in 96-well plates in the presence of 4×12.5 ng different biotin-pMHC, washed and 600 ng biotin anti-CD28 were added subsequently in a volume of 200 μl. Stimulations were initiated in 96-well plates by co-incubating 1×10^6 CD8+ T cells with 2×10^5 washed coated beads in 200 μl TCM supplemented with 5 ng/ml IL-12 (PromoCell) for 3 days at 37° C. Half of the medium was then exchanged by fresh TCM supplemented with 80 U/ml IL-2 and incubating was continued for 4 days at 37° C.
This stimulation cycle was performed for a total of three times. For the pMHC multimer readout using 8 different pMHC molecules per condition, a two-dimensional combinatorial coding approach was used as previously described (Andersen et al., 2012) with minor modifications encompassing coupling to 5 different fluorochromes. Finally, multimeric analyses were performed by staining the cells with Live/dead near IR dye (Invitrogen, Karlsruhe, Germany), CD8-FITC antibody clone SK1 (BD, Heidelberg, Germany) and fluorescent pMHC multimers. For analysis, a BD LSRII SORP cytometer equipped with appropriate lasers and filters was used. Peptide specific cells were calculated as percentage of total CD8+ cells. Evaluation of multimeric analysis was done using the FlowJo software (Tree Star, Oregon, USA). In vitro priming of specific multimer+ CD8+ lymphocytes was detected by comparing to negative control stimulations.

The target of assay [2] is HLA-A*02:01 (Homo sapiens, UniProt P04439, D140Y/D185E/D98H/E176V/E277Q/G131W/G231S/I119V/I121R/I166T/I218V/L300P/L318F/N151K/N90K/P208A/P217A/Q86G/Q94H/R138H/R169H/T345S). Description: MHC binding assay: UV-ligand exchange with β2m ELISA. The following applies: binding to HLA-A*02:01. The source says: Candidate peptides for T cell based therapies according to the present invention were further tested for their MHC binding capacity (affinity). The individual peptide-MHC complexes were produced by UV-ligand exchange, where a UV-sensitive peptide is cleaved upon UV-irradiation, and exchanged with the peptide of interest as analyzed. Only peptide candidates that can effectively bind and stabilize the peptide-receptive MHC molecules prevent dissociation of the MHC complexes. To determine the yield of the exchange reaction, an ELISA was performed based on the detection of the light chain (β2m) of stabilized MHC complexes. The assay was performed as generally described in Rodenko et al. (Rodenko et al., 2006).
96 well MAXISorp plates (NUNC) were coated over night with 2 ug/ml streptavidin in PBS at room temperature, washed 4× and blocked for 1 h at 37° C. in 2% BSA containing blocking buffer. Refolded HLA-A*02:01/MLA-001 monomers served as standards, covering the range of 15-500 ng/ml. Peptide-MHC monomers of the UV-exchange reaction were diluted 100-fold in blocking buffer. Samples were incubated for 1 h at 37° C., washed four times, incubated with 2 ug/ml HRP conjugated anti-β2m for 1 h at 37° C., washed again and detected with TMB solution that is stopped with […]. Absorption was measured at 450 nm. Candidate peptides that show a high exchange yield (preferably higher than 50%, most preferred higher than 75%) are generally preferred for a generation and production of antibodies or fragments thereof, and/or T cell receptors or fragments thereof, as they show sufficient avidity to the MHC molecules and prevent dissociation of the MHC complexes.

As for “YIDGLESRV (listed as Homo sapiens) [SEQ ID NO: 22]”, the “Wells positive [%] (in vitro immunogenicity)” value (“Wells positive [%]” below) in assay [1] is given as ““+” (<20% = +)”. Besides, the “Peptide Exchange (MHC class I binding score, peptide exchange yield)” value (shortened to “Peptide Exchange”) in assay [2] is on record as ““+++” (≥50 = +++)”. Taken in the same sequence, the figures for “GLLGFQAEA (listed as Homo sapiens) [SEQ ID NO: 24]” were ““++” (20%-49% = ++)” and ““++++” (≥75% = ++++)”. For the sequence “SLYKGLLSV (listed as Homo sapiens) [SEQ ID NO: 51]”, in assay [1], the “wells (in vitro immunogenicity, positive wells)” value is “++ (20%-49% = ++)”. On to “KMPEHISTV (listed as Homo sapiens) [SEQ ID NO: 1]”, for which the “Wells positive [%]” value in assay [1] is ““+” (<20% = +)”. The “Peptide Exchange” value in assay [2] is given as ““+++” (≥50 = +++)”.

Regarding “ALAGSSPQV (listed as Homo sapiens) [SEQ ID NO: 2]”, in assay [1], the “Wells positive [%]” value was ““++” (20%-49% = ++)”. In addition, the “Peptide Exchange” value in assay [2] is recorded as ““+++” (≥50 = +++)”. Taken in the same sequence, the figures for “SLADAVEKV (listed as Homo sapiens) [SEQ ID NO: 23]” were ““+++” (50%-69% = +++)” and ““+++” (≥50 = +++)”. Take “TLSSIKVEV (listed as Homo sapiens) [SEQ ID NO: 50]”: the “wells (in vitro immunogenicity, positive wells)” value in assay [1] is “+ (<20% = +)”. As for “ILFPDIIARA (listed as Homo sapiens) [SEQ ID NO: 66]”, the “wells (in vitro immunogenicity, positive wells)” value in assay [1] is “++ (20%-49% = ++)”. As to “SLLTEPALV (listed as Homo sapiens) [SEQ ID NO: 21]”, in assay [1], the “Wells positive [%]” value is reported as ““++” (20%-49% = ++)”. Further, in assay [2], the “Peptide Exchange” value is ““+++” (≥50 = +++)”.

The record behind these values is patent US10064929B2, “Peptides and combination of peptides for use in immunotherapy against breast cancer and other cancers” (immatics biotechnologies GmbH, priority 2015, dated 2018).
